Reference: patent publication US20260262643A1, “HERBICIDAL BENZOXAZINES” (FMC CORPORATION, priority 2022, published 2026)

Assays:
[1] = tested on: sedge, umbrella; assay: Test D flooded paddy test; format: in vivo, Cyperus difformis; settings: 250 g ai/ha, applied to paddy water, visual rating after 13 to 14 days, scale 0 to 100 (0 no effect, 100 complete control)
Outline: (§1)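 Compounds go straight into paddy water over 2-leaf plants in pots flooded to 3 cm. Greenhouse holding lasts 13 to 14 days. Injury is scored by eye against controls from 0 (none) to 100 (complete control).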

[2] = tested on: green foxtail; assay: Test C preemergence; format: in vivo, Setaria viridis; settings: preemergence, 0 to 100 scale (0 no effect, 100 complete control)
Outline: (§2)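 Visual injury score, 0–100 (100 = complete control), taken 10 days after treatment relative to untreated controls. Pre: directed spray onto soil over sown seeds. Post: foliar spray at one- to two-leaf stage, 2–10 cm. Solvent/surfactant formulation; loam–sand soil; greenhouse.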

[3] = tested on: corn; assay: Test C postemergence; format: in vivo, Zea mays; settings: postemergence, 10 days
Outline: as §2

[4] = tested on: ryegrass, Italian; assay: Test C postemergence; format: in vivo, Lolium multiflorum; settings: postemergence, 10 days
Outline: as §2

[5] = tested on: ragweed; assay: Test C postemergence; format: in vivo, Ambrosia artemisiifolia; settings: postemergence, 10 days
Outline: as §2

[6] = tested on: oat, wild; assay: Test C postemergence; format: in vivo, Avena fatua; settings: postemergence, 10 days
Outline: as §2

[7] = tested on: rice; assay: Test D flooded paddy test; format: in vivo, Oryza sativa; settings: 250 g ai/ha, applied to paddy water, visual rating after 13 to 14 days, scale 0 to 100 (0 no effect, 100 complete control)
Outline: as §1

[8] = tested on: oat, wild; assay: Test C preemergence; format: in vivo, Avena fatua; settings: preemergence, 0 to 100 scale (0 no effect, 100 complete control)
Outline: as §2

[9] = tested on: barnyardgrass; assay: Test C postemergence; format: in vivo, Echinochloa crusgalli; settings: postemergence, 10 days
Outline: as §2

[10] = tested on: blackgrass; assay: Test C postemergence; format: in vivo, Alopecurus myosuroides; settings: postemergence, 10 days
Outline: as §2

[11] = tested on: ragweed; assay: Test C preemergence; format: in vivo, Ambrosia artemisiifolia; settings: preemergence, 0 to 100 scale (0 no effect, 100 complete control)
Outline: as §2

[12] = tested on: ryegrass, Italian; assay: Test C preemergence; format: in vivo, Lolium multiflorum; settings: preemergence, 0 to 100 scale (0 no effect, 100 complete control)
Outline: as §2

[13] = tested on: barnyardgrass; assay: Test C preemergence; format: in vivo, Echinochloa crusgalli; settings: preemergence, 0 to 100 scale (0 no effect, 100 complete control)
Outline: as §2

[14] = tested on: wheat; assay: Test C preemergence; format: in vivo, Triticum aestivum; settings: preemergence, 0 to 100 scale (0 no effect, 100 complete control)
Outline: as §2

[15] = tested on: ducksalad; assay: Test D flooded paddy test; format: in vivo, Heteranthera limosa; settings: 250 g ai/ha, applied to paddy water, visual rating after 13 to 14 days, scale 0 to 100 (0 no effect, 100 complete control)
Outline: as §1

[16] = tested on: kochia; assay: Test C preemergence; format: in vivo, Bassia scoparia; settings: preemergence, 0 to 100 scale (0 no effect, 100 complete control)
Outline: as §2

[17] = tested on: soybean; assay: Test C postemergence; format: in vivo, Glycine max; settings: postemergence, 10 days
Outline: as §2

[18] = tested on: blackgrass; assay: Test C preemergence; format: in vivo, Alopecurus myosuroides; settings: preemergence, 0 to 100 scale (0 no effect, 100 complete control)
Outline: as §2

[19] = tested on: corn; assay: Test C preemergence; format: in vivo, Zea mays; settings: preemergence, 0 to 100 scale (0 no effect, 100 complete control)
Outline: as §2

[20] = tested on: horseweed; assay: Test C postemergence; format: in vivo, Erigeron canadensis; settings: postemergence, 10 days
Outline: as §2

[21] = tested on: pigweed, palmer; assay: Test C preemergence; format: in vivo, Amaranthus palmeri; settings: preemergence, 0 to 100 scale (0 no effect, 100 complete control)
Outline: as §2

[22] = tested on: wheat; assay: Test C postemergence; format: in vivo, Triticum aestivum; settings: postemergence, 10 days
Outline: as §2

[23] = tested on: green foxtail; assay: Test C postemergence; format: in vivo, Setaria viridis; settings: postemergence, 10 days
Outline: as §2

[24] = tested on: kochia; assay: Test C postemergence; format: in vivo, Bassia scoparia; settings: postemergence, 10 days
Outline: as §2

[25] = tested on: soybean; assay: Test C preemergence; format: in vivo, Glycine max; settings: preemergence, 0 to 100 scale (0 no effect, 100 complete control)
Outline: as §2

[26] = tested on: barnyardgrass; assay: Test D flooded paddy test; format: in vivo, Echinochloa crus-galli; settings: 250 g ai/ha, applied to paddy water, visual rating after 13 to 14 days, scale 0 to 100 (0 no effect, 100 complete control)
Outline: as §1

[27] = tested on: galium; assay: Test C postemergence; format: in vivo, Galium aparine; settings: postemergence, 10 days
Outline: as §2

[28] = tested on: pigweed, palmer; assay: Test C postemergence; format: in vivo, Amaranthus palmeri; settings: postemergence, 10 days
Outline: as §2

[29] = 125 g ai/ha, 0 to 100 scale, 0 no effect, 100 complete control
[30] = 500 g ai/ha, 0 to 100 scale (0 no effect, 100 complete control)

Structure (SMILES): Cc1ccc(-n2cnc(C(C)C)n2)cc1C(=O)N1CC(C(F)(F)F)Oc2c(Cl)cccc21 (single isomer, unassigned) [Compound 292]
- Plant response rating, Sedge, Umbrella (Flood) [1]: 0
- Foxtail, Green plant response rating ([2]; 500 g ai/ha): 100
- Foxtail, Green plant response rating ([2]; Test C, 125 g ai/ha): 90
- Plant response rating, Corn [3, 29]: 10
- Plant response rating, Corn [3, 30]: 20
- Plant response rating, Ryegrass, Italian [4, 29]: 0
- Plant response rating, Ryegrass, Italian [4, 30]: 60
- Plant response rating, Ragweed [5, 29]: 30
- Plant response rating, Ragweed [5, 30]: 20
- Plant response rating, Oat, Wild [6, 29]: 0
- Plant response rating, Oat, Wild [6, 30]: 50
- Plant response rating, Rice (Flood) [7]: 0
- Oat, Wild plant response rating ([8]; 500 g ai/ha): 80
- Oat, Wild plant response rating ([8]; Test C, 125 g ai/ha): 40
- Plant response rating, Barnyardgrass [9, 29]: 10
- Plant response rating, Barnyardgrass [9, 30]: 20
- Plant response rating, Blackgrass [10, 29]: 0
- Plant response rating, Blackgrass [10, 30]: 20
- Ragweed plant response rating ([11]; 500 g ai/ha): 20
- Ragweed plant response rating ([11]; Test C, 125 g ai/ha): 20
- Ryegrass, Italian plant response rating ([12]; 500 g ai/ha): 100
- Ryegrass, Italian plant response rating ([12]; Test C, 125 g ai/ha): 90
- Barnyardgrass plant response rating ([13]; 500 g ai/ha): 90
- Barnyardgrass plant response rating ([13]; Test C, 125 g ai/ha): 20
- Wheat plant response rating ([14]; 500 g ai/ha): 50
- Wheat plant response rating ([14]; Test C, 125 g ai/ha): 20
- Plant response rating, Ducksalad (Flood) [15]: 0
- Kochia plant response rating ([16]; 500 g ai/ha): 60
- Kochia plant response rating ([16]; Test C, 125 g ai/ha): 30
- Plant response rating, Soybean [17, 29]: 100
- Plant response rating, Soybean [17, 30]: 100
- Blackgrass plant response rating ([18]; 500 g ai/ha): 90
- Blackgrass plant response rating ([18]; Test C, 125 g ai/ha): 30
- Corn plant response rating ([19]; 500 g ai/ha): 10
- Corn plant response rating ([19]; Test C, 125 g ai/ha): 10
- Plant response rating, Horseweed [20, 29]: 20
- Plant response rating, Horseweed [20, 30]: 60
- Pigweed, Palmer plant response rating ([21]; 500 g ai/ha): 100
- Pigweed, Palmer plant response rating ([21]; Test C, 125 g ai/ha): 100
- Plant response rating, Wheat [22, 29]: 20
- Plant response rating, Wheat [22, 30]: 30
- Plant response rating, Foxtail, Green [23, 29]: 30
- Plant response rating, Foxtail, Green [23, 30]: 40
- Plant response rating, Kochia [24, 29]: 70
- Plant response rating, Kochia [24, 30]: 90
- Soybean plant response rating ([25]; 500 g ai/ha): 90
- Soybean plant response rating ([25]; Test C, 125 g ai/ha): 40
- Plant response rating, Barnyardgrass (Flood) [26]: 0
- Plant response rating, Galium [27, 29]: 70
- Plant response rating, Galium [27, 30]: 80
- Plant response rating, Pigweed, Palmer [28, 29]: 80
- Plant response rating, Pigweed, Palmer [28, 30]: 80
